Activity calls are given as the source filed them.
Columns and labels:
CHO = assay: cytotoxicity in TLR9-MyD88 CHO cells, dose response, cytotoxicity control for TLR9-MyD88 binding inhibitor project, cell-based, luminescence (AID 588339); assay type: functional, hamster; conditions: Cricetulus griseus;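 also: CHO cells stably coexpressing TLR9 and MyD88 fusions from primary screen; compound exposure lasted 48 hours before viability readout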
[1] = target: T1, Endoribonuclease toxin MazF (Escherichia coli K-12, UniProt P0AE70); assay: MazF toxin RNase activators, dose response, biochemical, fluorescence, single-stranded RNA substrate, uHTS hits (AID 588481); assay type: functional
T1 sequence (P0AE70 whole entry): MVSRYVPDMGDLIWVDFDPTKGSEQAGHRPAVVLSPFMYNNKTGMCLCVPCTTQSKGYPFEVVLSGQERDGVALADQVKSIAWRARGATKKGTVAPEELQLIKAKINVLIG

Beta Lactamase = Beta Lactamase (Pseudomonas aeruginosa, UniProt Q932Y6); assay: beta-lactamase reporter inhibitor potency, dose response, artefact control for TLR9-MyD88 binding inhibitor project, BLA reporter cells, FRET fluorescence (AID 588341); assay type: cell-based;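 also: cell based assay in CHO-K1 cells stably expressing beta-lactamase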
Sequence of Beta Lactamase (Q932Y6 whole entry): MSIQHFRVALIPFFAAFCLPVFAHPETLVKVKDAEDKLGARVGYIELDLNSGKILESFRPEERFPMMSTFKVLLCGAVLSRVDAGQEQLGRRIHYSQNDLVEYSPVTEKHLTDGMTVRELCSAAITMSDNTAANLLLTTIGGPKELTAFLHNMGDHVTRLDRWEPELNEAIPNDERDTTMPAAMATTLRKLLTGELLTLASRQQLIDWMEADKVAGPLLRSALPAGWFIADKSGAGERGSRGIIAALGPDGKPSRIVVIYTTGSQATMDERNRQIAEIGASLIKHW

[2] = target: T1, Endoribonuclease toxin MazF; assay: fluorescent RNA oligo signal without MazF, dose response, counter-screen for MazEF activator project, biochemical, fluorescence, single-stranded RNase substrate (AID 588502); assay type: functional
[3] = target: T2, Tyrosine-protein phosphatase non-receptor type 7 (Homo sapiens, UniProt P35236); assay type: functional
T2 sequence (P35236 whole entry): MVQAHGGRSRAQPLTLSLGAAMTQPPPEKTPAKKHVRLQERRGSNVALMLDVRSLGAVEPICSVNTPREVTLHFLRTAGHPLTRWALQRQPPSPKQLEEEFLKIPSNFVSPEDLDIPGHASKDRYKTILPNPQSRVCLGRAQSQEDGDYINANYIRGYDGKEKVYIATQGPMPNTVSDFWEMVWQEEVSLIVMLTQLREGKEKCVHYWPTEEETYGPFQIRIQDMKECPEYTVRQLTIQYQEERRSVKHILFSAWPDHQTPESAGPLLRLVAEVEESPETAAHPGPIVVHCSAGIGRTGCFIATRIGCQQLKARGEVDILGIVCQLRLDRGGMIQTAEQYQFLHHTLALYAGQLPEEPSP

Bcl-2-like protein 10 = target: T3, Bcl-2-like protein 10 (Homo sapiens, UniProt Q9HD36); assay: displacers of TR3 peptide from Bcl-B, primary screen, selectivity assay for Bfl-1 inhibitor project, biochemical, fluorescence polarization, FITC-TR3 peptide (AID 748);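 also: fluorescence polarization from a fluorescein-labelled TR3 peptide binding purified Bcl-B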
T3 sequence (Q9HD36 whole entry): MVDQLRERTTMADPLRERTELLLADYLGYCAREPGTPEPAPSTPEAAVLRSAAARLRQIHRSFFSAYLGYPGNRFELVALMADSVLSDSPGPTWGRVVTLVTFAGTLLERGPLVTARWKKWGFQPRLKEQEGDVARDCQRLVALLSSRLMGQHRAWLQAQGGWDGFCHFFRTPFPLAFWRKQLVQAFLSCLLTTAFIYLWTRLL

[4] = target: Glyceraldehyde-3-phosphate dehydrogenase (Homo sapiens, UniProt P04406)
Sequence of Glyceraldehyde-3-phosphate dehydrogenase (P04406 whole entry): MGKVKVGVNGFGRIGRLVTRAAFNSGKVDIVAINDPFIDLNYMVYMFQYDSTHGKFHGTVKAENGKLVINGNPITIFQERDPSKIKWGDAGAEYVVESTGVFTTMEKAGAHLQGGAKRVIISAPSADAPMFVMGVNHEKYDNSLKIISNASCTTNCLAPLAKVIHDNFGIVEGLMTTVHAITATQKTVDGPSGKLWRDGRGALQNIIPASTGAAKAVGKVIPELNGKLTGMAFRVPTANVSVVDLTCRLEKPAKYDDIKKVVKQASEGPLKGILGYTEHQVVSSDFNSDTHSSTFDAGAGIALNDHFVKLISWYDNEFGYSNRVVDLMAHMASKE

Estrogen receptor beta [5] = target: T4, Estrogen receptor beta (Homo sapiens, UniProt Q92731);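 also: recombinant ER-beta bound to coactivator SRC1 peptide in presence of estradiol agonist; inhibitors block coactivator peptide binding and lower the FRET signal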
T4 sequence (Q92731 whole entry): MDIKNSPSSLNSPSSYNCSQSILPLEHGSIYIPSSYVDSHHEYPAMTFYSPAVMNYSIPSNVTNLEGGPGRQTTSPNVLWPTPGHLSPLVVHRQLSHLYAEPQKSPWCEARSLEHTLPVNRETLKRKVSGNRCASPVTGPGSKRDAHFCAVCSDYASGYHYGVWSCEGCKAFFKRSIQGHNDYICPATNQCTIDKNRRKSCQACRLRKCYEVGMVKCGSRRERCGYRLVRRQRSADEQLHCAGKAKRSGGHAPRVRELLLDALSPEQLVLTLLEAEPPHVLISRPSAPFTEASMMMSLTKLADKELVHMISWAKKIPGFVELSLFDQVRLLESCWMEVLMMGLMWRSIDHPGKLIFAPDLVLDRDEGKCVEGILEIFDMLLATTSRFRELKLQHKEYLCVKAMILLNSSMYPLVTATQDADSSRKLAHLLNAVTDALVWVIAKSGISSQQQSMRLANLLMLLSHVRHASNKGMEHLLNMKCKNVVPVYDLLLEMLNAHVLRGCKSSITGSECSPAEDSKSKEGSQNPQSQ

Estrogen receptor beta [6] = target: T4, Estrogen receptor beta; assay: ERβ–SRC-3 coactivator interaction inhibitors, confirmation, orthogonal assay, biochemical, ELISA, streptavidin-HRP readout (AID 1060)
[7] = target: T5, Dual specificity protein phosphatase 6 (Rattus norvegicus, UniProt Q64346)
T5 sequence (Q64346 whole entry): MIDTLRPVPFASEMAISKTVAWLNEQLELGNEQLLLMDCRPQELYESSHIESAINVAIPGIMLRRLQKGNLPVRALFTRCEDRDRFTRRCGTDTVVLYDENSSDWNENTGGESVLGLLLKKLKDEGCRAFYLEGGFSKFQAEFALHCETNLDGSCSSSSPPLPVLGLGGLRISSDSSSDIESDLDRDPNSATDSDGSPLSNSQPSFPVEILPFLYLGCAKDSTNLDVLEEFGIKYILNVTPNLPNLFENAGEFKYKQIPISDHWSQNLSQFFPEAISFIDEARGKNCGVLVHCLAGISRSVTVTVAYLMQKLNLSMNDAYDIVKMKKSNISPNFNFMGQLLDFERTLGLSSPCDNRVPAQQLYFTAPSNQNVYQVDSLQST

[8] = target: T5, Dual specificity protein phosphatase 6; assay type: functional
[9] = target: T6, Carboxy-terminal domain RNA polymerase II polypeptide A small phosphatase 1 (Homo sapiens, UniProt Q9GZU7); assay: inhibitors of CTDSP1, concentration-response testing, biochemical assay, absorbance-based, actives from ultra-high-throughput screening (AID 540297); assay type: functional
T6 sequence (Q9GZU7 whole entry): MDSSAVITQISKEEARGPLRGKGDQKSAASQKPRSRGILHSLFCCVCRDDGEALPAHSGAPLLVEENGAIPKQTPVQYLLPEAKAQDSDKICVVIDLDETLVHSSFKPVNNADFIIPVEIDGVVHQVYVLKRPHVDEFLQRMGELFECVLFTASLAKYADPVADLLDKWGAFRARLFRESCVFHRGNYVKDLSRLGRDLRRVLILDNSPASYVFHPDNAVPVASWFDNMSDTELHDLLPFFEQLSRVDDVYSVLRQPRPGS

[10] = target: T7, Sentrin-specific protease 8 (Homo sapiens, UniProt Q96LD8); assay: SENP8 protease inhibitors, SAR follow-up, biochemical, luminescence (AID 504501); assay type: functional
T7 sequence (Q96LD8 whole entry): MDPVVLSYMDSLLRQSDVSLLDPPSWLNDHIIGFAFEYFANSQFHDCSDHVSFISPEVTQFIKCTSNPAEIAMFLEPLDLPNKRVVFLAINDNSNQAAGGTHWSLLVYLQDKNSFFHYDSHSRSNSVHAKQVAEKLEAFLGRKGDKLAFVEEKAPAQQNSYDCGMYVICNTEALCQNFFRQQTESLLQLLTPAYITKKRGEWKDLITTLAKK

Caspase-3 = target: T8, Caspase-3 (Homo sapiens, UniProt P42574); assay: SAR Analysis of small molecule inhibitors of Sentrin-specific proteases (SENPs) using a Caspase-3 Selectivity assay. [Related pubchem assays (depositor defined):AID2540, AID2599, AID434973, AID489001]; assay type: functional
T8 sequence (P42574 whole entry): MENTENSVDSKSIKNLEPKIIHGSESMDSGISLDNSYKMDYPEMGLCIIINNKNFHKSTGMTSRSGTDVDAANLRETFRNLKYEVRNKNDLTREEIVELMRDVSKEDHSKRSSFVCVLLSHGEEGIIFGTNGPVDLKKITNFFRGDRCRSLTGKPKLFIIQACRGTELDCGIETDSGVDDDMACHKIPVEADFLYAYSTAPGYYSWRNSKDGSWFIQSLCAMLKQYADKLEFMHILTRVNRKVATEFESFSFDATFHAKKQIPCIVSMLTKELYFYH

[11] = target: T9, Sentrin-specific protease 6 (Homo sapiens, UniProt Q9GZR1); assay: SAR Analysis of small molecule inhibitors of Sentrin-specific protease 6 (SENP6) using a Luminescent assay. [Related pubchem assays (depositor defined):AID2582, AID2599]; assay type: functional
T9 sequence (Q9GZR1 whole entry): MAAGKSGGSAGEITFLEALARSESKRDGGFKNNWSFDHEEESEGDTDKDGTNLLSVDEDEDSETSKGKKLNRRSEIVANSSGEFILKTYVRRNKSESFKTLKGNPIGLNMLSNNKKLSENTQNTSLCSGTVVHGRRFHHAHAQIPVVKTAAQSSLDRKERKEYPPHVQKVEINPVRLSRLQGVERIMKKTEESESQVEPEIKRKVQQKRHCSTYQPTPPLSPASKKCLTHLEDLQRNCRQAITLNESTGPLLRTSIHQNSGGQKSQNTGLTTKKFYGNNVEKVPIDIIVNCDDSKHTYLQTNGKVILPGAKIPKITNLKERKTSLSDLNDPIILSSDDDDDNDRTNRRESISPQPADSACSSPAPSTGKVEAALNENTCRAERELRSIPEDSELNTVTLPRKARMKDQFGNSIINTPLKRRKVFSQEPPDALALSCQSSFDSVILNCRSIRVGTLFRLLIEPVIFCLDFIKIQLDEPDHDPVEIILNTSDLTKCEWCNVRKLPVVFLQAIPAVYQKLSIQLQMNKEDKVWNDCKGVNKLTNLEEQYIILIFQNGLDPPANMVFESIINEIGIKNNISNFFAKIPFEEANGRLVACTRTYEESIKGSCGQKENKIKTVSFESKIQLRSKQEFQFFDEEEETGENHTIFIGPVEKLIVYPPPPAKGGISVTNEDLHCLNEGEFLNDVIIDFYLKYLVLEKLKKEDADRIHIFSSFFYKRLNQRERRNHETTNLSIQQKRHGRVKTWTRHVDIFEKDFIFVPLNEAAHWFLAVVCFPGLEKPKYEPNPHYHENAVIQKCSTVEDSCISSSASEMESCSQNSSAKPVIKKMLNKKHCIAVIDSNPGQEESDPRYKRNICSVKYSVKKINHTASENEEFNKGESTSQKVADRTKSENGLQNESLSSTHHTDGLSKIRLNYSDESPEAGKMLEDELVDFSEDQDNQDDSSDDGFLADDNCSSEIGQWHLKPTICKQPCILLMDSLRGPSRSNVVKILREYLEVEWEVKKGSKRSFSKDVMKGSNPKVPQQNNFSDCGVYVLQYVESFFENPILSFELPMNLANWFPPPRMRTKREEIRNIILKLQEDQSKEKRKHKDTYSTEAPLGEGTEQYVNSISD

[12] = target: T10, Sentrin-specific protease 7 (Homo sapiens, UniProt Q9BQF6); assay: SENP7 protease inhibitors, SAR follow-up, biochemical, luminescence (AID 504497); assay type: functional
T10 sequence (Q9BQF6 whole entry): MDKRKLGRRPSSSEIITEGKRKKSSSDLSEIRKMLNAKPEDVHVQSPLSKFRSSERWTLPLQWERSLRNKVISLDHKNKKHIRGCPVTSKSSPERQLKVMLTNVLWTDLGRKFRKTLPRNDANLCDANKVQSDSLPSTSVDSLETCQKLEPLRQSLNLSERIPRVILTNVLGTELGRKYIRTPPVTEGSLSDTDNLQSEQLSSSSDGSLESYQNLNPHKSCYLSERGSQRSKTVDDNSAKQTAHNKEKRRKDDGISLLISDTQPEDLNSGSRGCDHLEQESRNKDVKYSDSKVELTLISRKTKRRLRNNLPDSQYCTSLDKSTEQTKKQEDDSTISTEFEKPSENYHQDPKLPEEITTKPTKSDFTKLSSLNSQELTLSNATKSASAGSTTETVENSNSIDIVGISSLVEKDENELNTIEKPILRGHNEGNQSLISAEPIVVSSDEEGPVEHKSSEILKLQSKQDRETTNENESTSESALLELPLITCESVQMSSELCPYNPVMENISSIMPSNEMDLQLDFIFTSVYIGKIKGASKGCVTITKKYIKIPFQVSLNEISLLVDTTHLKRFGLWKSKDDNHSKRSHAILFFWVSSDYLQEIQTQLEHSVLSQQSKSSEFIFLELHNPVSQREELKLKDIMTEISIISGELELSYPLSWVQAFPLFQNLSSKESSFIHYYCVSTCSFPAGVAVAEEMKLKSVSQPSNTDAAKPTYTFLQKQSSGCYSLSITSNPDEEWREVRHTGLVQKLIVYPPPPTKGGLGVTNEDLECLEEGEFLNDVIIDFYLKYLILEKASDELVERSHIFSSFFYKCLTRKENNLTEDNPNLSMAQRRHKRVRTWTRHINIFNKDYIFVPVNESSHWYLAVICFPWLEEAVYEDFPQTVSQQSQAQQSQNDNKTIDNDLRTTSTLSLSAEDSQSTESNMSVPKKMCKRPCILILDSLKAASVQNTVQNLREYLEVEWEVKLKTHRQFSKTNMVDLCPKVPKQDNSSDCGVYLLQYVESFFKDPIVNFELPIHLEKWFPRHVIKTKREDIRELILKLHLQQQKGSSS

HEK293 = assay: inhibitors of LMP1-driven NF-kB reporter, dose response, cell-based, HEK293, luciferase, cherry-pick (AID 588343); assay type: functional; conditions: Homo sapiens
[13] = target: Latent membrane protein 1 (Human herpesvirus 4 (strain B95-8), UniProt P03230); assay: TES1-eGFP NF-kB reporter inhibition versus Tet-On dsRED, dose response, selectivity assay for LMP1 NF-kB inhibitor project, imaging, HEK293T, dual-color eGFP/dsRED, cherry-picks (AID 588398); assay type: functional, cell-based
Sequence of Latent membrane protein 1 (P03230 whole entry): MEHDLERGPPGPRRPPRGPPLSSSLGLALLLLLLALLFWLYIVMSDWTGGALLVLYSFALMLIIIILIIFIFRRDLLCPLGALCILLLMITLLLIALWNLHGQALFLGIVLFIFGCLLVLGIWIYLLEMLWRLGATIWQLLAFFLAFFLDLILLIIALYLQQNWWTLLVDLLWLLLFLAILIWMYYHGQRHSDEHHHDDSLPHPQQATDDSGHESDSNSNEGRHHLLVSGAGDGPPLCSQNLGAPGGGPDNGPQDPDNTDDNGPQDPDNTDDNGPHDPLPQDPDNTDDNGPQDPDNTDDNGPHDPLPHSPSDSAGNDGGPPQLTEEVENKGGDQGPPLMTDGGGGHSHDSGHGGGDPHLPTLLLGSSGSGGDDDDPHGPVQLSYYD

INS1 = assay: beta cell apoptosis inhibitors, cytokine rescue, dose response, luminescence, retest (AID 449756); assay type: functional, cell-based; conditions: Rattus norvegicus;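 also: cell death triggered by IL-1 beta plus TNF-alpha plus IFN-gamma mixture; protective hits raise ATP signal compared with cytokine alone wells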
[14] = Shn3 3'UTR reporter inhibitors, dose response, cell-based, Clone20 osteoblasts, firefly luciferase, cherry-picked (AID 624132); assay type: functional;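 also: firefly luciferase luminescence from reporter carrying the Shn3 3'UTR in osteoblasts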
[15] = HepG2 cell cytotoxicity, dose response, cytotoxicity control for Shn3 inhibitor project, CellTiter-Glo, cherry-picked (AID 624134); assay type: functional, cell-based
[16] = control 3'UTR Renilla luciferase suppression, dose response, counter-screen for Shn3 inhibitor project, cell-based, Clone20-Shn3RL, cherry-picked (AID 624133); assay type: functional

SMILES: CC1C/C(=C/c2cccn2C)C(=O)/C(=C/c2cccn2C)C1 (stereo unspecified)
- IC50 (CHO): > 49.7 µM (inactive)
- EC50 [1]: > 99 µM (inactive)
- IC50 (Beta Lactamase): 4.39 µM (active)
- EC50 [2]: > 99 µM (inactive)

SMILES: CCCCCc1nnc(NC(=O)Cc2cccs2)s1
- IC50 [3]: 6.28 µM (active)
- IC50 (Bcl-2-like protein 10): 12.5 µM (active)
- IC50 [4]: 98.6 µM (active)
- IC50 (Estrogen receptor beta [5]): < 1.56 µM (active)
- IC50 (Estrogen receptor beta [6]): > 50 µM (not active)
- IC50 [7]: 21.4 µM (active)
- IC50 [8]: 17.2 µM (active)
- IC50 [9]: 3.73 µM (active)

SMILES: CCCCc1ccc2nc(NC(=O)c3cc(Br)cs3)sc2c1
- IC50 [10]: > 99 µM (inactive)
- IC50 (Caspase-3): > 99 µM (inactive)
- IC50 [11]: > 99 µM (inactive)
- IC50 [12]: > 99 µM (inactive)

SMILES: COc1cc(OC)cc(-c2nc(/C=C/c3ccccc3)no2)c1
- IC50 [10]: > 99 µM (inactive)
- IC50 (Caspase-3): > 99 µM (inactive)
- IC50 [11]: > 99 µM (inactive)
- IC50 [12]: > 99 µM (inactive)

SMILES: CC(=O)NC(c1cccs1)c1cc(F)c2cccnc2c1O (stereo unspecified)
- AC50 (HEK293): 7.74 µM (active)
- AC50 [13]: 13 µM (active)
- AC50 (INS1): 1.58 µM (active)
- AC50 [14]: 1.67 µM (active)
- AC50 [15]: 2.94 µM (active)
- AC50 [16]: 5.16 µM (active)

— ChEMBL document CHEMBL1201862, “PubChem BioAssay data set” (2004)
